Read-outs that look alike come from different tables or passages of the source.
Assays:
Assay type in all cases: cell-based
Corynebacterium Ax 20 = assay: Inhibition of release of 3-hydroxy-3-methyl-hexanoic acid from Nα-(3-hydroxy-3-methyl-hexanoyl)-glutamine by bacterial cells (GC-analysis); conditions: for inhibition at 100 ppm / inhibition at 10 ppm / inhibition at 500 ppm / inhibition at 1000 ppm: Corynebacterium; for inhibition at 500 ppm: 500 ppm test compound; for inhibition at 1000 ppm: 1000 ppm test compound; for kind of inhibition (true inhibitor or alternative substrate): conclusion from Tables 1 and 2, prolonged preincubation; for IC 50 (Concentration for 50% inhibition of malodour release): estimated from the data in Table 1; for efficacy as inhibitors: general statement in the description; for inhibitory activity compared to compound II: relative to compound II; for inhibition of malodour release: Compound Ia
Experimental: (§1) Corynebacterium Ax 20 was grown overnight, harvested and resuspended in a phosphate buffer (50 mM, pH 7.5). Different compounds were dissolved in dimethylsulfoxide and added to the cells at a final concentration of 10 ppm, 100 ppm 500 ppm and 1000 ppm. The cells were then preincubated with the test agent for 30 min, 4 h, 8 h or 24 h. After this pre-incubation period, the natural substrate Nα-(3-hydroxy-3-methyl-hexanoyl)-glutamine was added (1 mM final concentration) and the cells were further incubated for 90 min. The released 3-hydroxy-3-methyl-hexanoic acid was determined by GC-analysis and compared to control samples to assess the […] malodor reducing capacity of a given compound in the bacterial cells. The samples were then further analysed to determine the cleavage of the synthetic compound by the action of the bacterial enzymes.

[1] = test system: Ax20, Ax30, Ax43, Ax52, Ax73; assay: Inhibition of release of 3-hydroxy-3-methyl-hexanoic acid, average over bacterial species; conditions: for inhibition at 10 ppm / inhibition at 100 ppm: average of Ax20, Ax30, Ax43, Ax52, Ax73
Experimental: as §1, with “The cells were then preincubated with the test agent for 30 min, 4 h, 8 h or 24 h.” left out
(§2) The inhibition of malodour release was tested on different bacterial species, all isolated from the human axilla. The method from Example 2 was used.

Ax43 = assay: Inhibition of release of 3-hydroxy-3-methyl-hexanoic acid in different bacterial species; conditions: Corynebacterium tuberculostearicum
Experimental: as §1, §2

Ax30 = assay: as above; conditions: Arthrobacter woluwensis
Experimental: as §1, with “The cells were then preincubated with the test agent for 30 min, 4 h, 8 h or 24 h.” left out
as §2

Ax52 = assay: as above; conditions: Corynebacterium mucifaciens
Experimental: as §1, with “The cells were then preincubated with the test agent for 30 min, 4 h, 8 h or 24 h.” left out
as §2

Ax73 = assay: as above; conditions: Corynebacterium coyleae
Experimental: as §1, with “The cells were then preincubated with the test agent for 30 min, 4 h, 8 h or 24 h.” left out
as §2

[2] = AX20, 100 ppm test compound, method of example 2, preincubation time not stated, read-out: % Inhibition of release of 3-hydroxy-3-methyl-hexanoic acid (100 ppm test compound)
[3] = AX20, preincubation 0.5 h, 10 ppm test compound, read-out: % inhibition of the release of 3-hydroxy-3-methyl-hexanoic acid
[4] = AX20, preincubation 0.5 h, 100 ppm test compound, read-out: % inhibition of the release of 3-hydroxy-3-methyl-hexanoic acid
[5] = AX20, preincubation 4 h, 10 ppm test compound, read-out: % inhibition of the release of 3-hydroxy-3-methyl-hexanoic acid
[6] = AX20, preincubation 4 h, 100 ppm test compound, read-out: % inhibition of the release of 3-hydroxy-3-methyl-hexanoic acid
[7] = AX20, preincubation 8 h, 10 ppm test compound, read-out: % inhibition of the release of 3-hydroxy-3-methyl-hexanoic acid
[8] = AX20, preincubation 8 h, 100 ppm test compound, read-out: % inhibition of the release of 3-hydroxy-3-methyl-hexanoic acid
[9] = AX20, preincubation 24 h, 10 ppm test compound, read-out: % inhibition of the release of 3-hydroxy-3-methyl-hexanoic acid
[10] = AX20, preincubation 24 h, 100 ppm test compound, read-out: % inhibition of the release of 3-hydroxy-3-methyl-hexanoic acid

## NC(=O)CC[C@H](NC(=O)Nc1cccc(Cc2ccccc2)c1)C(=O)O [Example 1c, N2-[(3-benzylphenylamino)carbonyl]-L-glutamine]
Corynebacterium Ax 20; [2]
  inhibition at 100 ppm: 71%

## CCCCC(CC)COC(=O)N[C@@H](CCC(N)=O)C(=O)O (stereo partly drawn) [Compound II, reference compound]
Corynebacterium Ax 20; [3]
  inhibition at 10 ppm: 2.8%
Corynebacterium Ax 20; [4]
  inhibition at 100 ppm: 33.4%
Corynebacterium Ax 20; AX20, preincubation 0.5 h
  inhibition at 500 ppm: 76.6%
  inhibition at 1000 ppm: 83%
Corynebacterium Ax 20; [5]
  inhibition at 10 ppm: -4.4%
Corynebacterium Ax 20; [6]
  inhibition at 100 ppm: -25.2%
Corynebacterium Ax 20; AX20, preincubation 4 h
  inhibition at 500 ppm: 59.9%
  inhibition at 1000 ppm: 79.5%
Corynebacterium Ax 20; [7]
  inhibition at 10 ppm: 8.3%
Corynebacterium Ax 20; [8]
  inhibition at 100 ppm: -9.8%
Corynebacterium Ax 20; AX20, preincubation 8 h
  inhibition at 500 ppm: -5.6%
  inhibition at 1000 ppm: 41.3%
Corynebacterium Ax 20; [9]
  inhibition at 10 ppm: -1%
Corynebacterium Ax 20; [10]
  inhibition at 100 ppm: -13.3%
Corynebacterium Ax 20; AX20, preincubation 24 h
  inhibition at 500 ppm: -28.8%
  inhibition at 1000 ppm: -23.1%
Corynebacterium Ax 20
  kind of inhibition (true inhibitor or alternative substrate): alternative substrate
Corynebacterium Ax 20; preincubation time 0.5 h
  IC 50 (Concentration for 50% inhibition of malodour release): 253.3 ppm
Corynebacterium Ax 20; preincubation time 4 h
  IC 50 (Concentration for 50% inhibition of malodour release): 387.2 ppm
Corynebacterium Ax 20; preincubation time 8 h
  IC 50 (Concentration for 50% inhibition of malodour release): >1000 ppm
Corynebacterium Ax 20; preincubation time 24 h
  IC 50 (Concentration for 50% inhibition of malodour release): >>1000 ppm

## NC(=O)CC[C@H](NC(=O)NCc1ccccc1)C(=O)O [Compound Ib, N2-[(benzylamino)carbonyl]-L-glutamine]
Corynebacterium Ax 20; [2]
  inhibition at 100 ppm: 61%
Corynebacterium Ax 20
  efficacy as inhibitors: particularly good efficacy as inhibitors

## CCCCC(CC)CNC(=O)N[C@@H](CCC(N)=O)C(=O)O (stereo partly drawn) [Compound Ia, N2-[(2-ethylhexylamino)carbonyl]-L-glutamine]
Corynebacterium Ax 20; 0.5 h preincubation time
  inhibitory activity compared to compound II: > 25 fold
Corynebacterium Ax 20; 8 h preincubation time
  inhibitory activity compared to compound II: > 100 times
Corynebacterium Ax 20; 10 ppm combined with Cosmocil CQ 100 ppm
  inhibition of malodour release: 58.8
Corynebacterium Ax 20; 10 ppm combined with Cosmocil CQ 200 ppm
  inhibition of malodour release: 75.6
Corynebacterium Ax 20; 10 ppm combined with Cosmocil CQ 500 ppm
  inhibition of malodour release: 85.2
Corynebacterium Ax 20; 100 ppm combined with Cosmocil CQ 100 ppm
  inhibition of malodour release: 85.9
Corynebacterium Ax 20; 100 ppm combined with Cosmocil CQ 200 ppm
  inhibition of malodour release: 95.6
Corynebacterium Ax 20; [2]
  inhibition at 100 ppm: 79.8%
Corynebacterium Ax 20; AX20, Ax20, preincubation 0.5 h, 10 ppm, read-out: % inhibition of release of 3-hydroxy-3-methyl-hexanoic acid
  inhibition at 10 ppm: 51%
Corynebacterium Ax 20; AX20, Ax20, preincubation 0.5 h, 100 ppm, read-out: % inhibition of release of 3-hydroxy-3-methyl-hexanoic acid
  inhibition at 100 ppm: 81%
Corynebacterium Ax 20; AX20, Ax20, preincubation 2 h, 10 ppm, read-out: % inhibition of release of 3-hydroxy-3-methyl-hexanoic acid
  inhibition at 10 ppm: 50%
Corynebacterium Ax 20; AX20, Ax20, preincubation 2 h, 100 ppm, read-out: % inhibition of release of 3-hydroxy-3-methyl-hexanoic acid
  inhibition at 100 ppm: 86%
Corynebacterium Ax 20; AX20, Compound Ia, 10 ppm alone (Cosmocil CQ 0 ppm), read-out: inhibition of malodour release
  inhibition at 10 ppm: 61%
Corynebacterium Ax 20; AX20, Compound Ia, 100 ppm alone (Cosmocil CQ 0 ppm), read-out: inhibition of malodour release
  inhibition at 100 ppm: 75.8%
Corynebacterium Ax 20; [3]
  inhibition at 10 ppm: 61%
Corynebacterium Ax 20; [4]
  inhibition at 100 ppm: 75.8%
Corynebacterium Ax 20; AX20, preincubation 0.5 h
  inhibition at 500 ppm: 92.4%
  inhibition at 1000 ppm: 92.5%
Corynebacterium Ax 20; [5]
  inhibition at 10 ppm: 52.2%
Corynebacterium Ax 20; [6]
  inhibition at 100 ppm: 81.2%
Corynebacterium Ax 20; AX20, preincubation 4 h
  inhibition at 500 ppm: 100%
  inhibition at 1000 ppm: 91.5%
Corynebacterium Ax 20; [7]
  inhibition at 10 ppm: 65.2%
Corynebacterium Ax 20; [8]
  inhibition at 100 ppm: 86%
Corynebacterium Ax 20; AX20, preincubation 8 h
  inhibition at 500 ppm: 100%
  inhibition at 1000 ppm: 91.8%
Corynebacterium Ax 20; [9]
  inhibition at 10 ppm: 19.9%
Corynebacterium Ax 20; [10]
  inhibition at 100 ppm: 83.2%
Corynebacterium Ax 20; AX20, preincubation 24 h
  inhibition at 500 ppm: 100%
  inhibition at 1000 ppm: 89.6%
Corynebacterium Ax 20
  kind of inhibition (true inhibitor or alternative substrate): true inhibitor
  efficacy as inhibitors: particularly good efficacy as inhibitors
Corynebacterium Ax 20; preincubation time 0.5 h
  IC 50 (Concentration for 50% inhibition of malodour release): <10 ppm
Corynebacterium Ax 20; preincubation time 4 h
  IC 50 (Concentration for 50% inhibition of malodour release): <10 ppm
Corynebacterium Ax 20; preincubation time 8 h
  IC 50 (Concentration for 50% inhibition of malodour release): <10 ppm
Corynebacterium Ax 20; preincubation time 24 h
  IC 50 (Concentration for 50% inhibition of malodour release): 52.8 ppm
[1]; preincubation 0.5 h
  inhibition at 10 ppm: 84.6%
  inhibition at 100 ppm: 89.6%
[1]; preincubation 2 h
  inhibition at 10 ppm: 79.2%
  inhibition at 100 ppm: 94.6%
[1]; conclusion from Table 4
  activity in different bacterial species: active in all bacterial species
Ax43; preincubation 0.5 h
  inhibition at 10 ppm: 93%
  inhibition at 100 ppm: 97%
Ax43; preincubation 2 h
  inhibition at 10 ppm: 97%
  inhibition at 100 ppm: 99%
Ax30; preincubation 0.5 h
  inhibition at 10 ppm: 95%
  inhibition at 100 ppm: 100%
Ax30; preincubation 2 h
  inhibition at 10 ppm: 93%
  inhibition at 100 ppm: 100%
Ax52; preincubation 0.5 h
  inhibition at 10 ppm: 77%
  inhibition at 100 ppm: 83%
Ax52; preincubation 2 h
  inhibition at 10 ppm: 86%
  inhibition at 100 ppm: 94%
Ax73; preincubation 0.5 h
  inhibition at 10 ppm: 107%
  inhibition at 100 ppm: 87%
Ax73; preincubation 2 h
  inhibition at 10 ppm: 70%
  inhibition at 100 ppm: 94%
